In one test the target is T1, MMP-8 (Homo sapiens, UniProt P22894).
T1 construct: Catalytic domains of MMP-2, -8, -9, and -13 were obtained from Enzo Life Sciences; purchased Enzo Life Sciences
Briefly: fluorometric MMP inhibition assay, MMP-8 catalytic domain. It is filed as biochemical. As to conditions: calculated from IC50 values of Table 2. As to the method: (§1) Catalytic domains of MMP-2, -8, -9, and -13 were obtained from Enzo Life Sciences. 96-well white microtiter plates (Corning, NBS) were used to carry out the assays (in triplicate). The assay measurements were performed by preparing dilutions to six different concentrations (1 nM–100 µM) of each inhibitor in a fluorometric assay buffer (50 mM Tris·HCl pH 7.5, 200 mM NaCl, 1 mM CaCl2, 1 µM ZnCl2, 0.05% Brij-35, and 1% DMSO). Incubation of the enzyme and inhibitor solutions occurred for 15 min at room temperature; fluorogenic substrate solution (OmniMMP® = Mca-Pro-Leu-Gly-Leu-Dpa-Ala-Arg-NH2, Enzo Life Sciences, 2.5 µM final concentration or OmniMMP®RED = TQ3-GABA-Pro-Cha-Abu-Smc-His-Ala-Dab (6′-TAMRA)-Ala-Lys-NH2, Enzo Life Sciences, and 1 µM final concentration) was subsequently added. The assay was incubated for 2–4 h at 37 °C, after which a Perkin–Elmer Victor V3 plate reader was used to measure fluorescence (λex= 340 nm, λem = 405 nm or λex = 545 nm, λem = 572 nm). Included in the assay were control wells lacking any inhibitor. MMP activity was thus determined and expressed in relative fluorescence units (RFU). Percent inhibition was calculated from control wells and IC50 values were determined using GraphPad Prism 5.0 and are shown as mean ± SEM of at least three independent measurements, which were performed in triplicate.

The target of a further test is T2, MMP-9 (Homo sapiens, UniProt P14780).
T2 construct: Catalytic domains of MMP-2, -8, -9, and -13 were obtained from Enzo Life Sciences; purchased Enzo Life Sciences
T2 sequence (P14780 107-444 limits assumed): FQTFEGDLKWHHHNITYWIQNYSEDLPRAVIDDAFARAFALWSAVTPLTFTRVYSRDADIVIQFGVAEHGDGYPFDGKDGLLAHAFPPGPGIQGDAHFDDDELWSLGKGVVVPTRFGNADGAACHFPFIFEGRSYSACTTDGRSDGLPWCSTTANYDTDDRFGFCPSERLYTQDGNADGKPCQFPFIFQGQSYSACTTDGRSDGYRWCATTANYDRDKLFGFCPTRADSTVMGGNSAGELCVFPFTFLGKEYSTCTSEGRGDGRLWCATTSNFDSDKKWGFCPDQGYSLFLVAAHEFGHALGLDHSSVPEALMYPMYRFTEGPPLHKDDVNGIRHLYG
Further details: method as in PMID 21714093. As to conditions: inhibition values from literature; cited from earlier work.

Another test has as its target T3, MMP-2 (Homo sapiens, UniProt P08253).
T3 construct: Catalytic domains of MMP-2, -8, -9, and -13 were obtained from Enzo Life Sciences; purchased Enzo Life Sciences
Description: fluorometric MMP inhibition assay, MMP-2 catalytic domain. It is filed as biochemical. As to conditions: calculated from IC50 values of Table 2. As to the method: as §1

The next test addresses T4, MMP-13 (Homo sapiens, UniProt P45452).
T4 construct: Catalytic domains of MMP-2, -8, -9, and -13 were obtained from Enzo Life Sciences; purchased Enzo Life Sciences
Briefly: fluorometric MMP inhibition assay, MMP-13 catalytic domain. It is filed as biochemical. As to the method: as §1

Where [1] appears, read: ratio of IC50 values of Table 2.

Where only a bound is given, the exact number is not on record here.

Results on 1 compound are retold here after PMC7912614, “(2-Aminobenzothiazole)-Methyl-1,1-Bisphosphonic Acids: Targeting Matrix Metalloproteinase 13 Inhibition to the Bone” (Pharmaceuticals, 2021).

A word on the IC50: it is the midpoint of a concentration-inhibition curve.

T3 sequence (P08253 110-446 limits assumed): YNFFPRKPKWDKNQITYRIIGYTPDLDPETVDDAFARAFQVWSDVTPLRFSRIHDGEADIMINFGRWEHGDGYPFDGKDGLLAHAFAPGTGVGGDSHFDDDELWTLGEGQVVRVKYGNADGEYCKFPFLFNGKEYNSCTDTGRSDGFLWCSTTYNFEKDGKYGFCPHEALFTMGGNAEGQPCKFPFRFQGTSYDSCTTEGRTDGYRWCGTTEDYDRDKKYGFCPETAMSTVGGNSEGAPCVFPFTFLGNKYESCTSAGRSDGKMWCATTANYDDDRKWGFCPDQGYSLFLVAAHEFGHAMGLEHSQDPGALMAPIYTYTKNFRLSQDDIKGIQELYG
T1 sequence (P22894 100-262 limits assumed): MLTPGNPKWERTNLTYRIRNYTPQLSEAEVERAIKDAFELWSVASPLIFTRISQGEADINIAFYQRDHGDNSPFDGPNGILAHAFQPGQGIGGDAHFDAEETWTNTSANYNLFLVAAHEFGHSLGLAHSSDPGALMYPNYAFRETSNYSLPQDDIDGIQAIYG

For the compound `O=P(O)(O)C(NS(=O)(=O)c1ccc(-c2ccccc2)cc1)P(=O)(O)O` [ML115, reference compound], the “Ligand Efficiency MMP-8” value on MMP-8 is reported as 0.35. Also, the IC50 at MMP-9 was greater than 100 µM. The “Ligand Efficiency MMP-2” value at MMP-2 was 0.38. Also, on MMP-13 (calculated from IC50 values of Table 2), the “Ligand Efficiency MMP-13” value was 0.34. The compound further returned an IC50 against MMP-13 (catalytic domain, fluorometric assay, mean ± SEM of at least 3 experiments) of 0.6 ± 0.3 µM. In addition, on MMP-13 (setting [1]), the “Selectivity MMP-2/13” value came out at 0.23, the “Selectivity MMP-8/13” value is on record as 0.67 and the “Selectivity MMP-9/13” value is on record as greater than 166.67.
